From patent publication US12661404B2, “Methods and materials for tissue ablation” (Mayo Foundation for Medical Education and Research, priority 2020, dated 2026)
pEC50: −log10 of the molar value.

Legend:
rat liver = details: solubilized with ICG in 25%-LATTE, injected into rat liver
Description: Time-dependent evaluation of chemotherapy drug diffusion and retention following LATTE injection in rat liver. […] Post necropsy, near-infrared fluorescent scans (NIRF) showing ICG retention at the two injection sites. […] Fluorescent scans visualizing Doxorubicin at the medial location of the same liver.
Intrahepatic injections or LATTE mixtures were performed in Sprague Dawley rats via laparotomy. Anesthetized rats were placed in a supine position on a warming platform. The abdominal hair was removed with an electric shaver and scrubbed to disinfect the skin with triple applications of povidone-iodine alternating with 70% alcohol. […]
To assess differences in ICG or doxorubicin spreading and retention following intrahepatic injections, ex vivo spectral fluorescence imaging was performed on fixed liver tissues using the IVIS 200 system (PerkinElmer, Inc. USA). […] Cross-sectional images were acquired following near-infrared illumination at the excitation wavelength of 750 nm, while fluorescent emission was acquired at 850 nm to visualize indocyanine green (ICG); Doxorubicin was detected at an excitation wavelength of 460 nm and an emission wavelength of 560 nm. […] Fluorescent intensity was quantified in the region of interest (ROI) of each tissue. […]

[1] = tested on: human hepatocellular carcinoma (Hep-G2) cells; assay: cells; details: HepG2, 24 h, read-out: EC50, fractional viability
Description: HepG2 human liver cancer cell line (ATCC CRL10741; American Type Culture Collection, Manassas, VA, USA) were cultured in 75 cm^2 flasks using growth medium consisting of low glucose Dulbecco's Modified Eagle Medium (DMEM, ThermoFisher) and 10% heat-inactivated bovine serum that was supplemented with 100 IU penicillin and 10 μg/mL streptomycin (Thermo Fisher Scientific). […] The anticancer activity of LATTE on HepG2 was determined using WST-1 reagent (2-(4-Iodophenyl)-3-(4-nitrophenyl)-5-(2,4-disulfophenyl)-2H-tetrazolium sodium) assay as an indication of viability/cytotoxicity treatment. WST-1 viability assay is based on the reduction of tetrazolium salt, WST-1 to an insoluble formazan dye by electron transport across the plasma membrane in viable cells that alter the optical density of the media. […] Cell viability was calculated relative to control wells that received the growth medium alone.
All reported values are the means of three replicate experiments with each study having 8 wells per dose level. Plots of the log concentration versus fractional viability for each drug were generated for each study.

renal artery = tested on: renal artery; design: species or system swine; details: in vivo
Description: Healthy Yorkshire pigs (S&S Farms, Brentwood, CA) weighing 48 to 55 kg were acclimatized for at least 4 days under standard feeding conditions and suitable temperature. Pigs were anesthetized using intramuscular injection of 5 mg kg^−1 tiletamine-zolazepam (Telazol, Zoetis), […] xylazine, and 0.02 mg kg^−1 glycopyrrolate. Pigs were then placed in a supine position and intubated on an X-ray compatible operating table (Pannomed Aeron, DRE, KY). Following intubation, anesthesia was maintained with inhalation of 1.5-3% isoflurane. During the procedure, electrocardiogram, transcutaneous oxyhemoglobin saturation (SpO2), end-tidal CO2 concentration, inspired oxygen fraction, and core temperature were monitored. Percutaneous access to the carotid artery was obtained using ultrasound guidance (ACUSON 52000, Siemens) and fluoroscopy (OEC Elite C-Arm, GE Healthcare Systems, Chicago, IL). Access needle and wire were exchanged for a 5 French catheter (Cook Medical). Over a GT-glidewire (Terumo Medical), the tip of the catheter was advanced to the renal using contrast-enhanced fluoroscopy (350 mgI mL-1 Omnipaque, GE HealthCare, MA). […] The radiopacity of NanoGel or NS hydrogel and vessel patency were assessed using digital subtraction angiography. […] At necropsy, the embolized kidneys were explanted for fluorescence imaging and histology.

Molecule: COc1cccc2c1C(=O)c1c(O)c3c(c(O)c1C2=O)C[C@@](O)(C(=O)CO)C[C@@H]3O[C@H]1C[C@H](N)[C@H](O)[C@H](C)O1 [Doxorubicin]
- doxorubicin retention throughout the affected zone (rat liver): up to 28 days
- pEC50 [1]: 5.79

Molecule: Nivo: immunotherapy agent Nivolumab (an anti PD-1 antibody)
- nivolumab localization (immunohistochemistry) (renal artery): localized inside the renal artery and in the surrounding area
